{"source": "patent US8192962B2", "about": "“Processes for detecting toxic substances” (Daikin Industries, Ltd., priority 2001, dated 2012)", "system": "Energy system protein genes", "assay": "DNA chip mRNA expression in yeast, energy system protein genes (Table 4)", "type": "cell-based, Saccharomyces cerevisiae S288C", "method_in_brief": "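Value is the scanned fluorescence intensity ratio of exposed versus chemical-free cells. Log-phase S288C yeast in YPD at 25° C. received one toxic substance for two hours, dosed to slow growth without killing; Cy3/Cy5-labeled cDNA from oligo-dT-purified mRNA was hybridized to a whole-genome chip at 65° C.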"}
{"compound": "[Cl][Hg][Cl]", "note": "[(3), HgCl2]", "values": [{"measurement": "The level of expressed mRNA in the presence of chemical substance/The level of expressed mRNA in the absence of chemical substance", "setting": "yeast gene YAL060W", "value": 3.2}, {"measurement": "The level of expressed mRNA in the presence of chemical substance/The level of expressed mRNA in the absence of chemical substance", "setting": "yeast gene YBL058W, cells incubated two hours with the chemical substance", "value": 0.5}, {"measurement": "The level of expressed mRNA in the presence of chemical substance/The level of expressed mRNA in the absence of chemical substance", "setting": "yeast gene YBL099W, cells incubated two hours with the chemical substance", "value": 3.1}, {"measurement": "The level of expressed mRNA in the presence of chemical substance/The level of expressed mRNA in the absence of chemical substance", "setting": "yeast gene YBR001C, cells incubated two hours with the chemical substance", "value": 1.1}, {"measurement": "The level of expressed mRNA in the presence of chemical substance/The level of expressed mRNA in the absence of chemical substance", "setting": "yeast gene YBR185C, cells incubated two hours with the chemical substance", "value": 1.3}, {"measurement": "The level of expressed mRNA in the presence of chemical substance/The level of expressed mRNA in the absence of chemical substance", "setting": "yeast gene YBR221C, cells incubated two hours with the chemical substance", "value": 3.2}, {"measurement": "The level of expressed mRNA in the presence of chemical substance/The level of expressed mRNA in the absence of chemical substance", "setting": "yeast gene YCL040W", "value": 10.1}, {"measurement": "The level of expressed mRNA in the presence of chemical substance/The level of expressed mRNA in the absence of chemical substance", "setting": "yeast gene YCR012W", "value": 5.1}, {"measurement": "The level of expressed mRNA in the presence of chemical substance/The level of expressed mRNA in the absence of chemical substance", "setting": "yeast gene YCR046C, cells incubated two hours with the chemical substance", "value": 1.2}, {"measurement": "The level of expressed mRNA in the presence of chemical substance/The level of expressed mRNA in the absence of chemical substance", "setting": "yeast gene YCR105W, cells incubated two hours with the chemical substance", "value": 1.2}, {"measurement": "The level of expressed mRNA in the presence of chemical substance/The level of expressed mRNA in the absence of chemical substance", "setting": "yeast gene YDL021W", "value": 2.4}, {"measurement": "The level of expressed mRNA in the presence of chemical substance/The level of expressed mRNA in the absence of chemical substance", "setting": "yeast gene YDL067C, cells incubated two hours with the chemical substance", "value": 1.6}, {"measurement": "The level of expressed mRNA in the presence of chemical substance/The level of expressed mRNA in the absence of chemical substance", "setting": "yeast gene YDL078C, cells incubated two hours with the chemical substance", "value": 1.2}, {"measurement": "The level of expressed mRNA in the presence of chemical substance/The level of expressed mRNA in the absence of chemical substance", "setting": "yeast gene YDL107W, cells incubated two hours with the chemical substance", "value": 1.0}, {"measurement": "The level of expressed mRNA in the presence of chemical substance/The level of expressed mRNA in the absence of chemical substance", "setting": "yeast gene YDL174C", "value": 0.9}, {"measurement": "The level of expressed mRNA in the presence of chemical substance/The level of expressed mRNA in the absence of chemical substance", "setting": "yeast gene YDL181W, cells incubated two hours with the chemical substance", "value": 1.9}, {"measurement": "The level of expressed mRNA in the presence of chemical substance/The level of expressed mRNA in the absence of chemical substance", "setting": "yeast gene YDR001C", "value": 2.6}, {"measurement": "The level of expressed mRNA in the presence of chemical substance/The level of expressed mRNA in the absence of chemical substance", "setting": "yeast gene YDR050C, cells incubated two hours with the chemical substance", "value": 2.3}, {"measurement": "The level of expressed mRNA in the presence of chemical substance/The level of expressed mRNA in the absence of chemical substance", "setting": "yeast gene YDR079W, cells incubated two hours with the chemical substance", "value": 0.8}, {"measurement": "The level of expressed mRNA in the presence of chemical substance/The level of expressed mRNA in the absence of chemical substance", "setting": "yeast gene YDR178W, cells incubated two hours with the chemical substance", "value": 3.4}, {"measurement": "The level of expressed mRNA in the presence of chemical substance/The level of expressed mRNA in the absence of chemical substance", "setting": "yeast gene YDR231C", "value": 1.0}, {"measurement": "The level of expressed mRNA in the presence of chemical substance/The level of expressed mRNA in the absence of chemical substance", "setting": "yeast gene YDR298C, cells incubated two hours with the chemical substance", "value": 2.6}, {"measurement": "The level of expressed mRNA in the presence of chemical substance/The level of expressed mRNA in the absence of chemical substance", "setting": "yeast gene YDR377W, cells incubated two hours with the chemical substance", "value": 1.3}, {"measurement": "The level of expressed mRNA in the presence of chemical substance/The level of expressed mRNA in the absence of chemical substance", "setting": "yeast gene YDR529C, cells incubated two hours with the chemical substance", "value": 0.9}, {"measurement": "The level of expressed mRNA in the presence of chemical substance/The level of expressed mRNA in the absence of chemical substance", "setting": "yeast gene YEL024W, cells incubated two hours with the chemical substance", "value": 3.8}, {"measurement": "The level of expressed mRNA in the presence of chemical substance/The level of expressed mRNA in the absence of chemical substance", "setting": "yeast gene YEL039C, cells incubated two hours with the chemical substance", "value": 1.3}, {"measurement": "The level of expressed mRNA in the presence of chemical substance/The level of expressed mRNA in the absence of chemical substance", "setting": "yeast gene YER178W", "value": 3.6}, {"measurement": "The level of expressed mRNA in the presence of chemical substance/The level of expressed mRNA in the absence of chemical substance", "setting": "yeast gene YFL057C", "value": 1.5}, {"measurement": "The level of expressed mRNA in the presence of chemical substance/The level of expressed mRNA in the absence of chemical substance", "setting": "yeast gene YFR053C", "value": 3.0}, {"measurement": "The level of expressed mRNA in the presence of chemical substance/The level of expressed mRNA in the absence of chemical substance", "setting": "yeast gene YGL018C, cells incubated two hours with the chemical substance", "value": 1.8}, {"measurement": "The level of expressed mRNA in the presence of chemical substance/The level of expressed mRNA in the absence of chemical substance", "setting": "yeast gene YGL062W", "value": 1.1}, {"measurement": "The level of expressed mRNA in the presence of chemical substance/The level of expressed mRNA in the absence of chemical substance", "setting": "yeast gene YGL187C, cells incubated two hours with the chemical substance", "value": 1.6}, {"measurement": "The level of expressed mRNA in the presence of chemical substance/The level of expressed mRNA in the absence of chemical substance", "setting": "yeast gene YGL191W, cells incubated two hours with the chemical substance", "value": 1.4}, {"measurement": "The level of expressed mRNA in the presence of chemical substance/The level of expressed mRNA in the absence of chemical substance", "setting": "yeast gene YGL205W, cells incubated two hours with the chemical substance", "value": 0.7}, {"measurement": "The level of expressed mRNA in the presence of chemical substance/The level of expressed mRNA in the absence of chemical substance", "setting": "yeast gene YGL256W, cells incubated two hours with the chemical substance", "value": 1.1}, {"measurement": "The level of expressed mRNA in the presence of chemical substance/The level of expressed mRNA in the absence of chemical substance", "setting": "yeast gene YGR043C", "value": 3.2}, {"measurement": "The level of expressed mRNA in the presence of chemical substance/The level of expressed mRNA in the absence of chemical substance", "setting": "yeast gene YGR062C, cells incubated two hours with the chemical substance, 25° C., YPD medium", "value": 0.7}, {"measurement": "The level of expressed mRNA in the presence of chemical substance/The level of expressed mRNA in the absence of chemical substance", "setting": "yeast gene YGR087C, cells incubated two hours with the chemical substance", "value": 1.7}, {"measurement": "The level of expressed mRNA in the presence of chemical substance/The level of expressed mRNA in the absence of chemical substance", "setting": "yeast gene YGR174C, cells incubated two hours with the chemical substance", "value": 0.6}, {"measurement": "The level of expressed mRNA in the presence of chemical substance/The level of expressed mRNA in the absence of chemical substance", "setting": "yeast gene YGR192C", "value": 3.8}, {"measurement": "The level of expressed mRNA in the presence of chemical substance/The level of expressed mRNA in the absence of chemical substance", "setting": "yeast gene YGR244C", "value": 1.6}, {"measurement": "The level of expressed mRNA in the presence of chemical substance/The level of expressed mRNA in the absence of chemical substance", "setting": "yeast gene YGR254W", "value": 3.8}, {"measurement": "The level of expressed mRNA in the presence of chemical substance/The level of expressed mRNA in the absence of chemical substance", "setting": "yeast gene YHR179W", "value": 2.6}, {"measurement": "The level of expressed mRNA in the presence of chemical substance/The level of expressed mRNA in the absence of chemical substance", "setting": "yeast gene YIL160C", "value": 2.3}, {"measurement": "The level of expressed mRNA in the presence of chemical substance/The level of expressed mRNA in the absence of chemical substance", "setting": "yeast gene YIR031C, cells incubated two hours with the chemical substance", "value": 0.6}, {"measurement": "The level of expressed mRNA in the presence of chemical substance/The level of expressed mRNA in the absence of chemical substance", "setting": "yeast gene YJL052W", "value": 4.0}, {"measurement": "The level of expressed mRNA in the presence of chemical substance/The level of expressed mRNA in the absence of chemical substance", "setting": "yeast gene YJL121C, cells incubated two hours with the chemical substance", "value": 1.9}, {"measurement": "The level of expressed mRNA in the presence of chemical substance/The level of expressed mRNA in the absence of chemical substance", "setting": "yeast gene YJL166W, cells incubated two hours with the chemical substance", "value": 1.6}, {"measurement": "The level of expressed mRNA in the presence of chemical substance/The level of expressed mRNA in the absence of chemical substance", "setting": "yeast gene YJL216C, cells incubated two hours with the chemical substance", "value": 2.2}, {"measurement": "The level of expressed mRNA in the presence of chemical substance/The level of expressed mRNA in the absence of chemical substance", "setting": "yeast gene YJR009C", "value": 5.6}]}
